Columns and labels:
[1] = tested on: Runx2 and OCN; assay: Western blot of Runx2 and OCN in bone marrow cells of PA-treated mice; type: in vivo, C57BL/6 mice
Protocol: Marrow cells were obtained from the left femur of PA- and vehicle-treated animals (n=6 per group) by flushing with Dulbecco's alpha modified medium (DMEM). Red blood cells in marrow cells were hemolyzed in 0.017 M tris-HCl, pH 7.5, buffer containing 0.8% ammonium chloride. Hemolyzed bone marrow suspensions were rinsed twice with phosphate buffered saline (PBS). Protein extracts were obtained after suspending the cells in 2 volumes of buffer containing 10 mM EDTA, 0.5 mM phenylmethylsulfonyl fluoride, and one Complete™ protease inhibitor mixture tablet (Boehringer Mannheim, Laval, Quebec, Canada). […] Protein content was determined with a protein assay kit (Bio-Rad. Mississauga, Ontario), and samples were then aliquoted and stored at −80° C. […] Antigen-antibody complexes were detected by chemiluminescence using a kit of reagents from ECL (Amersham, UK) and blots were exposed to high-performance chemiluminescence film (Amersham, UK). Films were scanned and the optical density of each specific band analysed using the ImageMaster program and expressed as OD/mm2/100 μg of total protein. Relative intensity of the samples was determined comparing the protein of interest in the treated mice using the values of vehicle-treated mice as controls (100%). […]

[2] = tested on: OVX C57BL/6 mice (osteoporosis model); assay: Bone histology and dynamic histomorphometry in Sham and OVX mice; type: in vivo
Text: Nine-month-old oophorectomised (OVX) and SHAM-operated C57BL/6 mice (n=24 per group) were obtained from the Animal Resources Centre (Perth, Wash.). After 2 weeks of acclimation, mice were divided into four groups (Table 2) and received treatment in their drinking water for a total of 6 weeks. Mice treated with plain water were used as controls. Mice were housed in cages in a limited access room.
For dynamic histomorphometry, tetracycline labelling was achieved through the intraperitoneal injection of demeclocycline (20 mg/kg) (Sigma Chemicals, St. Louis, Mo., USA) to the three treated groups at 5 and 2 days before sacrifice. One side femur from each animal in each group was removed at the time of killing, fixed in 70% ethanol, dehydrated, and embedded undecalcified in methylmethacrylate (J-T Baker, Phillipsburg, N.J., USA). At 50 μm intervals, longitudinal sections of 5 and 8 μm thick were cut using a polycut-E microtome (Reichert-Jung Leica, Heerbrugg, Switzerland), placed on gelatine-coated glass slides, deplastified and stained with Goldner's trichrome. Histomorphometry was done with a semi-automatic image analysing system combining a microscope equipped with a camera lucida and digitizing tablet linked to a computer using the OsteoMeasure Software (Osteometrics Inc., Decatur, Ga., USA). Nomenclature and abbreviations of histomorphometric parameters follow the recommendations of the American Society of Bone and Mineral Research (see Parfitt et al. (1987), “Bone histomorphometry: Standardization of nomenclature, symbols and units”, J Bone Miner Res., 2: 595-610.)

[3] = tested on: OVX C57BL/6 mice (osteoporosis model); assay: Quantitative μCT of femur and vertebrae in Sham and OVX mice; type: in vivo; details: oral PA 6 weeks
Protocol: Nine-month-old oophorectomised (OVX) and SHAM-operated C57BL/6 mice (n=24 per group) were obtained from the Animal Resources Centre (Perth, Wash.). After 2 weeks of acclimation, mice were divided into four groups (Table 2) and received treatment in their drinking water for a total of 6 weeks. Mice treated with plain water were used as controls. Mice were housed in cages in a limited access room. Mice were administered a lethal dose of anaesthetic at the indicated times, exsanguinated, and imaged using a Faxitron MX20 equipped with an FPX-2 Imaging system (Dalsa Medoptics, Waterloo, Ontario, Canada). μ-CT was performed on the left femur and lumbar vertebrae after removal of soft tissues and overnight fixation in 4% paraformaldehyde. The distal metaphysis of the femur and the body of the vertebrae were scanned with a Skyscan 1072 micro-CT instrument (Skyscan, Antwerp, Belgium). Image acquisition was performed at 100 kV and 98 μA, with a 0.9° rotation between frames. The two-dimensional images were used to generate three-dimensional reconstructions to obtain quantitative data with the 3D Creator software supplied with the instrument. Nomenclature and abbreviations of 3D-μCT parameters follow the recommendations of the American Society of Bone and Mineral Research (see Bouxsein et al. (2010), “Guidelines for assessment of bone microstructure in rodents using micro-computed tomography”, J Bone Miner Res., 25: 1468-1486).

[4] = tested on: Runx2 and OCN; assay: RT-PCR of Runx2 and OCN in bone marrow cells of PA-treated mice; type: in vivo, C57BL/6 mice; details: all PA-treated groups vs vehicle
Protocol: Bone marrow cells were flushed and isolated as previously described. Total RNA was extracted from marrow cells using a QIAGEN RNeasy Mini extraction kit following manufacturer's instructions (QIAGEN Pty, Doncaster, VIC, Australia; cat#74104). First strand complementary DNA (cDNA) synthesis was performed using 200 ng of total RNA, 50 ng random hexamers and 50 units reverse transcriptase at 42° C. for 1 hour, as described by manufacturer (Bioline Australia Pty, Alexandria, NSW, Australia; cat# BIO-65025). Real-time PCR for expressed genes as markers for osteogenesis was performed in duplicate in a total reaction volume of 25 μl, 10% of which was cDNA (or water for non-template control), 3 mM MgCl2 and 250 nM of each forward and reverse specific primer for target genes and normalizer. Primers for specific detection of mRNA expression included: […]
All PCRs were performed in a Corbett Rotor-Gene™ 3000 (QIAGEN Pty) using SYBR green with no-ROX reaction mix and a standard thermal profile as described by supplier (Bioline Australia Pty, Alexandria, NSW, Australia; cat# QT6750-02). Quantitative RT-PCR data was defined by threshold cycle (Ct) normalized for the housekeeping gene glyceraldehyde-3-phosphate dehydrogenase (GAPDH): […]

O=C(O)c1ccccn1 [PA, pyridine-2-carboxylic acid]
protein expression of OCN and Runx2 (immunoblot) [1]: significant increase
bone turnover (fluorochrome double labelling) ([2]; Sham and OVX mice, oral PA 6 weeks): significant and dose-dependent increase in bone turnover
mineral apposition rates (MAR) ([2]; trabecular and cortical bone, vs vehicle): increased mineral apposition rates
mineralized bone (Von Kossa labelling) ([2]; vs untreated controls): higher levels of mineralized bone
bone relative to tissue volume (BV/TV) [3]: significant and dose-dependent increase
numbers of trabeculae (Tb.N) [3]: increased
thickness of trabeculae (Tb.Th) [3]: increased
mRNA levels of osteogenic genes Runx2 and OCN [4]: higher levels
